Starred links: 1 amine or outer side, 2 acyl side, 3 side chain; linkers in the order of their positions; H or OH if unused. Positions of bridges follow the written chain, without caps; N, C: chain ends. Non-standard residues stand in square brackets, D forms with d. Residues, ends and D or L forms follow the SMILES beside them. Groups on a side chain read outwards from the residue. *: point of attachment. C20 diacid = O=C(O)CCCCCCCCCCCCCCCCCCC(=O)*; γGlu = O=C(O)[C@H](CCC(=O)[*:2])N[*:1]; αMeF = C[C@](N)(Cc1ccccc1)C(=O)O; NMeD = CN[C@@H](CC(=O)O)C(=O)O; αMeL = CC(C)C[C@](C)(N)C(=O)O; Orn = NCCC[C@H](N)C(=O)O; CH2 = C([*:1])[*:2]

The nature of series [1]: Pharmacokinetics in male Sprague Dawley rats. It counts as in vivo. To be noted: single SC 30 nmol/kg, mean; for CL/F / Tmax / half-life: rat, plasma; for CL/F / Tmax / AUCINF/D / Cmax/D: n = 3; for half-life: n = 3, read-out: T l/2 (converted). How it is done:
(§1) The pharmacokinetics of Compound II (SEQ ID NO:2), Compound IV (SEQ ID NO:4), Compound VI (SEQ ID NO:6), and Compound VIII (SEQ ID NO:8) are evaluated following a single subcutaneous administration of 30 nmol/kg to male Sprague Dawley rats. Blood samples are collected at 1, 3, 6, 12, 24, 48, 72, 96 hours post SC dose. The resulting individual plasma concentrations are used to calculate pharmacokinetic parameters. Peptide plasma (K3EDTA) concentrations are determined using a qualified LC/MS method that measured the intact mass of the peptides. Each peptide and an analog as an internal standard are extracted from plasma. A high resolution Thermo Q-Exactive is used for LC/MS detection.

The nature of series [2]: Pharmacokinetics in male cynomolgus monkeys. It counts as in vivo. The conditions noted are these: single SC 20 nmol/kg, mean; for CL/F / Tmax / half-life: male, cynomolgus monkey, plasma; for CL/F / Tmax / AUCINF/D / Cmax/D: n = 3; for half-life: n = 3, read-out: T½ (converted). On the procedure: as §1, with “20” for “30”, “cynomolgus monkeys.” for “Sprague Dawley rats.”, “120, 168, 240, 336, 408, 504” for “96”

A further series addresses T1, human CT receptors (Homo sapiens, UniProt P30988).
T1 construct: expressed in transfected cells
T1 sequence (P30988 25-474): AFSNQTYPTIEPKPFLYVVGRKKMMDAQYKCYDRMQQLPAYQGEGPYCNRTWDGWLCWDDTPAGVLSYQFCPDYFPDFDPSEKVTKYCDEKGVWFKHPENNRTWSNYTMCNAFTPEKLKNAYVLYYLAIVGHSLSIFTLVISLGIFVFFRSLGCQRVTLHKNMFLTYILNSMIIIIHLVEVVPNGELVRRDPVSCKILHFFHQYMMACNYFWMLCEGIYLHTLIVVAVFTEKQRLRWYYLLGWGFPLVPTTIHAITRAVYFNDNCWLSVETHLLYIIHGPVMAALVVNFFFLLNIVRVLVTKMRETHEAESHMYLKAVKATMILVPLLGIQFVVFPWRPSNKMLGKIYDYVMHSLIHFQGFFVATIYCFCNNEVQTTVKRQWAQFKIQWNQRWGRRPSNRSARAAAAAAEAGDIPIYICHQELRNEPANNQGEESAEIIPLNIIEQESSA
Put plainly: hCTR cAMP functional activity (HTRF). It is filed as cell-based. The conditions noted are these: ±SE; UMUC3 cells overexpressing hCTR; relative EC50. An outline of the steps:
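UM-UC-3 bladder cells stably overexpressing human CT receptor, 1200 cells/well, exposed to peptides in 1:3 dilution series for 1 h at room temperature. Intracellular cAMP measured by HTRF after 60 min lysis/detection, converted to pmol/well from a per-experiment cAMP standard curve.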
On the technique in general: In TR-FRET formats the signal depends on donor and acceptor labels being close together.

Another series addresses T2, hAMY1R (Homo sapiens, UniProt O60894+P30988).
T2 construct: expressed in transfected cells
In words: hAMY1R cAMP functional activity (HTRF). It counts as cell-based. The conditions noted are these: ±SE; UMUC3 cells overexpressing hAMY1R; relative EC50. An outline of the steps: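 UMUC3 cells expressing hCTR plus transfected human RAMP1 (AMY1R) were treated with peptide in a 1:3 dilution series at 1500 cells/well for 1 h at room temperature. Intracellular cAMP was measured by HTRF after 60 min lysis-detection and converted to pmol/well against a standard curve for each run.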

In a further series the test system is human dendritic cells. It is filed as cell-based. On the procedure:
MAPPS profiles the MHC-II presented peptides on human dendritic cells treated with tested molecules. CD14+ cells, isolated from the PBMCs of normal human donors, are cultured and differentiated into immature DCs by incubation with IL-4 and GM-CSF. On day 4, culture media is replaced with fresh media containing tested molecules. On day 5, LPS is added to transform the cells into mature DCs. On day 6, cells are lysed in RIPA buffer with protease inhibitors. Immunoprecipitation of MHC-II complexes are performed using biotinylated anti-MHC-II antibody coupled to streptavidin beads. The bound complex is eluted and filtered. The isolated MHC-II peptides are analyzed by a mass spectrometer. Peptide identifications are generated by an internal proteomics pipeline using search algorithms with no enzyme and a bovine/human database with test sequences appended to the database. A KNIME workflow is used to process the identification files from the samples. Peptides identified from the test articles are aligned against the parent sequence of the test molecule. The output is used to determine the percentage of donors displaying MHC-II peptides from regions of the test molecule. Compound II, Compound IV, Compound VI, Compound VIII, a compound representative of U.S. Pat. No. 9,023,789 (hereinafter “Compound '789”), and Pramlintide are tested in the MAPPs assay.

The subject of another series is CD4+ T cells. Put plainly: T cell proliferation assay. The conditions noted are these: 7-10 donors with diverse MHC.

T2 sequence (O60894 27-148 partner, one chain of several): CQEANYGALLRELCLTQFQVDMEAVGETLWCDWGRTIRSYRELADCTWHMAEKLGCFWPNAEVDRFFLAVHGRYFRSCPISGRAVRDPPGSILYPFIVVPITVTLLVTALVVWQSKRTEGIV
Procedure for CD4+ T cells: This assay assesses the ability of tested antibodies or tested MAPPS peptides to activate CD4+ T cells by inducing cellular proliferation. CD8+ T cell depleted PBMC's are prepared and labeled with CFSE. Each sample is tested with media control, keyhole limpet haemocyanin (KLH; positive clinical benchmark control), tested antibodies, or tested MAPPS peptides. Cultures are incubated for 7 days. On day 7, samples are analyzed by flow cytometry.

For `CC[C@H](C)[C@H](NC(=O)[C@@H]1CCCN1C(=O)CNC(=O)[C@H](Cc1ccccc1)NC(=O)[C@H](CC(=O)O)N(C)C(=O)[C@H](CC(N)=O)NC(=O)[C@H](CO)NC(=O)[C@H](CO)NC(=O)[C@H](CCCNC(=N)N)NC(=O)[C@@H](NC(=O)[C@H](CC(C)C)NC(=O)[C@](C)(Cc1ccccc1)NC(=O)[C@H](CCC(=O)O)NC(=O)[C@H](C)NC(=O)[C@H](CC(C)C)NC(=O)[C@H](CCCN)NC(=O)CNC(=O)[C@@H](NC(=O)[C@H](C)NC(=O)[C@@H]1CSCSC[C@H](NC(=O)[C@@H](N)CCCCNC(=O)CC[C@H](NC(=O)CC[C@H](NC(=O)CCCCCCCCCCCCCCCCCCC(=O)O)C(=O)O)C(=O)O)C(=O)N[C@@H](CCC(=O)O)C(=O)N[C@@H]([C@@H](C)O)C(=O)N[C@@H](C)C(=O)N[C@@H]([C@@H](C)O)C(=O)N1)[C@@H](C)O)C(C)C)C(=O)N[C@@H](CC(C)C)C(=O)N1CCC[C@H]1C(=O)N1CCC[C@H]1C(=O)N[C@H](C(=O)N[C@@H](CCC(=O)O)C(=O)N[C@H](C(=O)NCC(=O)N[C@@H](CO)C(=O)N[C@@H](CC(N)=O)C(=O)N[C@H](C(=O)N[C@@H](Cc1ccc(O)cc1)C(N)=O)[C@@H](C)O)C(C)C)[C@@H](C)O` [Compound VI, KCETATCATG-Orn-LAE-αMeF-LVRSSN-NMeD-FGPILPPTEVGSNTY-NH2] (H-K([γGlu-γGlu-C20 diacid])CETATCATG[Orn]LAE[αMeF]LVRSSN[NMeD]FGPILPPTEVGSNTY-NH2; linker 2-7 via CH2), in series [1], the CL/F is 2 mL/h/kg, the time to peak (Tmax) came to 24 h, the half-life is 54 ± 8.4 h and the AUCINF/D worked out at 506 ± 26.6 hr * kg * nmol/L/nmol. This molecule also gave a Cmax/D in series [1] of 5.4 ± 0.5 kg * nmol/L/nmol. Besides, in series [2], the CL/F was 1.26 mL/h/kg, the Tmax was determined as 40 ± 13.9 h, the half-life was 85 ± 5.8 h and the AUCINF/D was determined as 794 ± 27 hr * kg * nmol/L/nmol. Besides, the Cmax/D in series [2] was 4.9 ± 0.7 kg * nmol/L/nmol. This molecule also yielded an EC50 at human CT receptors of 13.2 ± 2.23 nM. At hAMY1R, this molecule gave a concentration for a half-maximal effect (EC50) of 0.107 ± 0.015 nM. In the series on human dendritic cells, the “MAPPS Assay donors displayed peptides” value was “no peptides”, the “MAPPS Assay immunogenicity risk” value is “Low Risk” and the “peptides displayed on MHC-II complexes” value is “no peptides displayed on MHC-II complexes”. In the series on CD4+ T cells, the “T Cell Proliferation Assay: protein, immunogenicity risk” value is given as “Low Risk” and the “T Cell Proliferation Assay: protein, positive donors” value is “(1/9”.
With `CC[C@H](C)[C@H](NC(=O)[C@@H]1CCCN1C(=O)CNC(=O)[C@H](Cc1ccccc1)NC(=O)[C@H](CC(N)=O)NC(=O)[C@H](Cc1c[nH]cn1)NC(=O)[C@H](CO)NC(=O)[C@H](CO)NC(=O)[C@H](CCCNC(=N)N)NC(=O)[C@@H](NC(=O)[C@H](CC(C)C)NC(=O)[C@H](Cc1ccccc1)NC(=O)[C@H](CCC(=O)O)NC(=O)[C@H](C)NC(=O)[C@](C)(CC(C)C)NC(=O)[C@H](CCCN)NC(=O)CNC(=O)[C@@H](NC(=O)[C@H](C)NC(=O)[C@@H]1CSCSC[C@H](NC(=O)[C@@H](N)CCCCNC(=O)CC[C@H](NC(=O)CC[C@H](NC(=O)CCCCCCCCCCCCCCCCCCC(=O)O)C(=O)O)C(=O)O)C(=O)N[C@@H](CCC(=O)O)C(=O)N[C@@H]([C@@H](C)O)C(=O)N[C@@H](C)C(=O)N[C@@H]([C@@H](C)O)C(=O)N1)[C@@H](C)O)C(C)C)C(=O)N[C@@H](CC(C)C)C(=O)N1CCC[C@H]1C(=O)N1CCC[C@H]1C(=O)N[C@H](C(=O)N[C@@H](CCC(=O)O)C(=O)N[C@H](C(=O)NCC(=O)N[C@@H](CO)C(=O)N[C@@H](CC(N)=O)C(=O)N[C@H](C(=O)N[C@@H](Cc1ccc(O)cc1)C(N)=O)[C@@H](C)O)C(C)C)[C@@H](C)O` [Compound VIII] (H-K([γGlu-γGlu-C20 diacid])CETATCATG[Orn][αMeL]AEFLVRSSHNFGPILPPTEVGSNTY-NH2; linker 2-7 via CH2), in series [1], the apparent clearance (CL/F) was 3.7 mL/h/kg, the time of peak concentration (Tmax) worked out at 16 ± 6.9 h, the half-life was 36.4 ± 2.93 h and the AUCINF/D is 270 ± 22.4 hr * kg * nmol/L/nmol. The Cmax/D in series [1] was determined as 3.8 ± 0.4 kg * nmol/L/nmol. Also, in series [2], the CL/F is 1.07 mL/h/kg, the time of peak concentration (Tmax) came to 28 ± 18.3 h, the half-life was 62 ± 4.7 h and the AUCINF/D is 942 ± 67 hr * kg * nmol/L/nmol. Besides, in series [2], the Cmax/D was 7.2 ± 0.3 kg * nmol/L/nmol. Besides, at human CT receptors, the midpoint of the response, the EC50, lay at 9.69 ± 2.01 nM. In addition, on hAMY1R, the EC50 is 0.107 ± 0.02 nM. In the series with human dendritic cells, the “MAPPS Assay donors displayed peptides” value was “no peptides”, the “MAPPS Assay immunogenicity risk” value was “Low Risk” and the “peptides displayed on MHC-II complexes” value is given as “no peptides displayed on MHC-II complexes”. In the series on CD4+ T cells, the “T Cell Proliferation Assay: protein, immunogenicity risk” value is recorded as “Low Risk” and the “T Cell Proliferation Assay: protein, positive donors” value is “(1/9”.

One may read the CL/F as the apparent clearance, not corrected for the fraction that reaches the circulation. The term Tmax denotes the time from dosing to the highest level. A word on the EC50: it is the concentration that produces a half-maximal response. A higher EC50 goes with weaker potency.

These data come from patent US12551532B2, “Long-acting amylin receptor agonists and uses thereof” (Eli Lilly and Company, priority 2021, dated 2026).
